Measured values published in article PMC7488486 (Acta Pharmaceutica Sinica. B, 2020).

Assays:
adult male Wistar rats [1] = test: Tail-flick test, acute pain model, single administration; format: in vivo; conditions: i.t., 10 nmol/rat, mean ± SEM
adult male Wistar rats [2] = test: Rotarod, evaluation of motor impairment; format: in vivo; conditions: 10 nmol/rat i.t., 30 min after administration, cut-off 300 s, n = 6
adult male Wistar rats [3] = test: Scratching and grooming behaviour; format: in vivo; conditions: 10 nmol/rat i.t.
adult male Wistar rats [4] = test system: adult male Wistar rats
dopamine D2 receptors = dopamine D2 receptors (Homo sapiens, UniProt P14416); test: [35S]GTPγS binding assay in transfected cells, dopamine D2 receptor; format: biochemical
dopamine D2 receptors, sequence (P14416 whole entry): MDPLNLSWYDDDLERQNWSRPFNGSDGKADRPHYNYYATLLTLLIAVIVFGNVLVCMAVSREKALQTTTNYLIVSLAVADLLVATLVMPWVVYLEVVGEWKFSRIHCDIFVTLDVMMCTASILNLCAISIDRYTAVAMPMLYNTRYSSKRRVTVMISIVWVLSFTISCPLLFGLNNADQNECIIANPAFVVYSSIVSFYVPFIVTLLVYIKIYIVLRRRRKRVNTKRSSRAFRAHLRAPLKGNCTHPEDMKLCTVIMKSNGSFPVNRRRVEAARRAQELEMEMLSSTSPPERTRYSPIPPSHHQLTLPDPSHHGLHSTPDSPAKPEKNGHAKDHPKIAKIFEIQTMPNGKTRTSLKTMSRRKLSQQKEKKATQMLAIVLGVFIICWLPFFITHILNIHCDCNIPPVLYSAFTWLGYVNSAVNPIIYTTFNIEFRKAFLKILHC

| SMILES | MPE (%), tail-flick test (adult male Wistar rats [1]; 15 min post-administration) [%] | MPE (%), tail-flick test (adult male Wistar rats [1]; 30 min post-injection) [%] | Latency to fall, Rotarod (adult male Wistar rats [2]) [s] | Additional behaviours (wet-dog shakes, teeth chattering) (adult male Wistar rats [3]) | Scratching response (adult male Wistar rats [3]; day 9, first 30 min post-injection) | Increase in the acute ED50 values after repeated treatment (adult male Wistar rats [4]; i.t., tail-flick test) [fold] | ED50 value (nmol, i.t.), Day 1 (adult male Wistar rats [4]; rat tail-flick, 30 min post-injection, Day 1, mean (CI 95%)) | ED50 value (nmol, i.t.), Day 3 (adult male Wistar rats [4]; rat tail-flick, repeated daily treatment, Day 3, mean (CI 95%)) | Influence of domperidone on the [35S]GTPγS response (dopamine D2 receptors; dopamine receptor antagonist domperidone present, unpublished data) | Emax (dopamine D2 receptors; read-out: Emax, G protein activation at dopamine D2 receptor) [%] |
| --- | --- | --- | --- | --- | --- | --- | --- | --- | --- | --- |
| CN1CC[C@]23c4c5ccc(O)c4O[C@H]2[C@@H](O)C=C[C@H]3[C@H]1C5 [Morphine] | 84.50 ± 3.84 | 86.23 ± 4.76 | 222.33 ± 8.44 | wet-dog shakes and teeth chattering | strong scratch reflex in rats that weakened over time | 3.2 | 2.82 (2.33–3.41) nmol | 9.03 (7.03–11.61) nmol | – | – |
| NCCc1ccc(O)c(O)c1 [Dopamine] | – | – | – | – | – | – | – | – | considerably reduced in the presence of domperidone | 141 |
